Measurements: patent US7465549B2 (UCB, S.A., priority 2002, dated 2008)
Read-outs that look alike come from different tables or passages of the source.

Columns and labels:
[1] = tested on: audiogenic-susceptible mouse; details: cited from earlier work
[2] = biological target: T1, LBS (Rattus norvegicus, UniProt Q02563); experiment: autoradiography of [3H]ucb 30889 binding on rat brain sections
T1 construct: from tissue; host or cells: rat brain (crude membranes; 25 µm sections for autoradiography)
Experimental: (§1) Binding experiments were conducted on crude rat brain membranes at 4° C. as described in Noyer et al. (Euro. J. Pharmacol. 286: 137-146 (1995)). Incubation time for equilibrium studies was 120 min. For kinetic and competition studies, [^3H]ucb 30889 (30 Ci/mmol) was used at a concentration of 1.3 nM in 0.5 ml of a Tris-HCl (pH 7.4) buffer containing 2 mM Mg^2+. Localization of the LBS in brain substructures was assessed by autoradiography on 25 μm thick slices incubated under similar conditions. Slides were then washed twice for 10 min at 4° C. in 50 mM Tris-HCl (pH 7.4) containing 0.5% BSA, dried and exposed for 3 weeks to [^3H]Hyperfilm at −20° C. Non-specific binding (NSB) was determined by the inclusion of 1 mM LEV during the incubation period.

[3] = tested on: LBS in peripheral tissues; details: heart, kidneys, spleen, pancreas, adrenals, lungs and liver; radiolabel studies; cited from earlier work
[4] = biological target: T2, levetiracetam binding site (LBS) (Rattus norvegicus, UniProt Q02563); details: cited from earlier work; for displacement of LEV binding: rat brain LBS
T2 construct: host or cells: crude rat brain membranes (Noyer et al. 1995; Gillard et al. 2003)

[5] = tested on: LBS in peripheral tissues; experiment: radioligand binding in peripheral tissues; set-up: species or system rat; details: 150 μg of protein/assay, 1.3 nM radioligand
Experimental: as §1
The limit of detection under the experimental conditions (150 μg of protein/assay and 1.3 nM of radioligand) was a Bmax of 200 fmol/mg protein.

[6] = biological target: T3, hSV2B (Homo sapiens, UniProt Q7L1I2); experiment: [3H]ucb 30889 binding to hSV2B in transient COS-7 system
T3 construct: expressed in transfected cells; host or cells: COS-7, transient

[7] = biological target: T2, levetiracetam binding site (LBS); experiment: [3H]ucb 30889 binding on crude rat brain membranes (kinetics, saturation, competition)
[8] = tested on: COS-7; experiment: [3H]ucb 30889 binding in cell types
Experimental: To identify and characterize the LBS in situ, [^3H]ucb 30889 was used to map the LBS within the brain and to study both its cellular and subcellular distribution. For rat brain autoradiography, 25 μm slices were incubated with 1.3 nM [^3H]ucb 30889 for 120 min at 4° C. in 50 mM Tris-HCl buffer (pH 7.4). Binding assays with rat brain membranes and various neuronal cell lines were performed under similar conditions. […] For photolabeling, membranes were incubated with 40 nM [^3H]ucb 30889 for 120 min at 4° C. in the same buffer, followed by irradiation with UV-light for 30 min (Fuks et al., Eur. J. Pharmacol. 478:11-19 (2003)).
In addition, a PC12 cell line subclone, PC12a, which is low in LBS, was used to establish a pool of PC 12 cells expressing hSV2A under stable antibiotic selection.

[9] = biological target: T4, hSV2C (Homo sapiens, UniProt Q496J9); experiment: [3H]ucb 30889 binding to hSV2C in transient COS-7 system
T4 construct: expressed in transfected cells; host or cells: COS-7, transient
T4 sequence (Q496J9 1-727): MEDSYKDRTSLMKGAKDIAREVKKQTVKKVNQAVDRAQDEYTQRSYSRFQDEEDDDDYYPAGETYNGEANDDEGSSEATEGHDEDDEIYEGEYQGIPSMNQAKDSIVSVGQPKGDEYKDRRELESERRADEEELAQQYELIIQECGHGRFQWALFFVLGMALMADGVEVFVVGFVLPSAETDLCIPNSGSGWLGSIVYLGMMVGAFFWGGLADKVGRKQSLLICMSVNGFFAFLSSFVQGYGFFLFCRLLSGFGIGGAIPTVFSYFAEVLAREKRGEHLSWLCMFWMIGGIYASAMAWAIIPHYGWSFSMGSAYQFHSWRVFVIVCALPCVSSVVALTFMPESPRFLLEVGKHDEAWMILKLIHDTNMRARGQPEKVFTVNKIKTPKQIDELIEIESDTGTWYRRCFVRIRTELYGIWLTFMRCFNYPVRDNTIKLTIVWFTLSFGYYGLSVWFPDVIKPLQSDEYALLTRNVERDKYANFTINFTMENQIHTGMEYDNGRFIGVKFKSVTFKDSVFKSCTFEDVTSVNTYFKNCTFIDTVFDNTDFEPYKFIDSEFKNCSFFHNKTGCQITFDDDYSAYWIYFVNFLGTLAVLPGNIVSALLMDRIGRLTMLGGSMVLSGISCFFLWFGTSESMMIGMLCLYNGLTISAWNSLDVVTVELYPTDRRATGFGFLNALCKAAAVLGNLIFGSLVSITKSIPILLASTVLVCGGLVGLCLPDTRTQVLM

[10] = biological target: T5, soluble SV2A (Rattus norvegicus, UniProt Q02563); experiment: binding to soluble SV2A (n-dodecyl-β-D-maltoside solubilized rat brain membranes)
T5 construct: the soluble protein maintains its native structural conformation in n-dodecyl-β-D-maltoside; from tissue; host or cells: rat brain membranes, detergent supernatant (100,000 g)
Experimental: The rat brain membranes were diluted in a solubilization buffer (Tris-HCl 20 mM pH 7.4, 0.25 M sucrose, protease inhibitors Complete Roche) containing n-dodecyl-β-D-maltoside 15 mM and incubated for two hours at 4° C. Subsequently, the solution was centrifuged at 4° C. for one hour at 100,000 g. […] The supernatants were incubated with [^3H]ucb 30889 as described.

[11] = biological target: T6, hSV2A (Homo sapiens, UniProt Q7L0J3); experiment: [3H]ucb 30889 binding to hSV2A transiently expressed in COS-7 cells; details: displacement of [3H]ucb 30889, COS-7 cells
T6 construct: expressed in transfected cells; host or cells: COS-7, transient, Lipofectamine 2000, pDEST 12.2 Gateway vector (CMV promoter)
T6 sequence (Q7L0J3 whole entry): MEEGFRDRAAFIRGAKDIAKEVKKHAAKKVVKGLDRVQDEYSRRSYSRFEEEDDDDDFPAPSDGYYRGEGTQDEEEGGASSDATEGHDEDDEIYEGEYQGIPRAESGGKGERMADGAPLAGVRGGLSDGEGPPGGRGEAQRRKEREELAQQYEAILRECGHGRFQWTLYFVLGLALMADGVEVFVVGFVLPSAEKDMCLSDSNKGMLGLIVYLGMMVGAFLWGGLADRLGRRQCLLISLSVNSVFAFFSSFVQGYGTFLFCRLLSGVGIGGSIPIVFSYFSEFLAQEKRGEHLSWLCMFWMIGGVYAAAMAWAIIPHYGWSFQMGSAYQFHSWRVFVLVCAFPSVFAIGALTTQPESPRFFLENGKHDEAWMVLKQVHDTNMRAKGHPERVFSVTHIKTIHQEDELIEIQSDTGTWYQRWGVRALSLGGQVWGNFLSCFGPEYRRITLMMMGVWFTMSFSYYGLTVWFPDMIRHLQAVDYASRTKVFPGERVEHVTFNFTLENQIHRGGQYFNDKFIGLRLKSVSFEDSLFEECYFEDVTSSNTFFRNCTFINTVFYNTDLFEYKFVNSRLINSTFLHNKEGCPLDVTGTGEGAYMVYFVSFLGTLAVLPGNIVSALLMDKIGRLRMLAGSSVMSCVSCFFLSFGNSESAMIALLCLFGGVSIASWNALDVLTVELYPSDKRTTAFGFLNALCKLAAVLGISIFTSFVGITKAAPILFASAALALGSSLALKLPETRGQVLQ

T2 sequence (Q02563 whole entry): as the sequence (Q7L0J3 whole entry) above, with D53E, S62A, T71A, E144D, A154T, G440S, S482A, I572V, M634L counted along it
T3 sequence (Q7L1I2 whole entry): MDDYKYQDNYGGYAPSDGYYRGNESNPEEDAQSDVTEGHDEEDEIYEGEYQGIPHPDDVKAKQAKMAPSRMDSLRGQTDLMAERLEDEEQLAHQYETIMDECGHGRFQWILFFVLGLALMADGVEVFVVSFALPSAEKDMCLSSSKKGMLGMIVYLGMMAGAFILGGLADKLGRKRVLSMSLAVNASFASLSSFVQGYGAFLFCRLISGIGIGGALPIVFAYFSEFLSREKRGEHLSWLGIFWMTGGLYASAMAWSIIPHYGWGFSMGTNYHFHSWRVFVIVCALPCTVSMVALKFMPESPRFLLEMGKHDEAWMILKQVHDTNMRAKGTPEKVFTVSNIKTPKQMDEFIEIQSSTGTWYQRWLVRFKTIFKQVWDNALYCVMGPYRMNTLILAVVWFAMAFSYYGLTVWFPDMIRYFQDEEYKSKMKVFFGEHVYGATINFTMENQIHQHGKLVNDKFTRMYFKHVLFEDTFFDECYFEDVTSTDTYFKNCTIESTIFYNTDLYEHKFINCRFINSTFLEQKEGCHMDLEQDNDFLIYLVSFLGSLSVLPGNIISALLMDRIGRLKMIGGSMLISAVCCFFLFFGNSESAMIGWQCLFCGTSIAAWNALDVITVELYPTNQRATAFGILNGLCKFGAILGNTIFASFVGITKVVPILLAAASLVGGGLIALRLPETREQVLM
T1 sequence (Q02563 whole entry): as the sequence (Q7L0J3 whole entry) above, with D53E, S62A, T71A, E144D, A154T, G440S, S482A, I572V, M634L counted along it
T5 sequence (Q02563 whole entry): as the sequence (Q7L0J3 whole entry) above, with D53E, S62A, T71A, E144D, A154T, G440S, S482A, I572V, M634L counted along it

Question: For CC[C@@H](C(N)=O)N1CCCC1=O [levetiracetam, (S)-α-ethyl-2-oxo-1-pyrrolidine acetamide], which suppression of seizures [1] is on record?
Answer: unexpected potent ability of LEV to suppress seizures

Question: And the “inhibition of [3H]ucb 30889 binding in brain sections” value [2]?
Answer: can be inhibited by levetiracetam at concentrations equivalent to those observed in in vitro binding

Question: What about the “specific binding in peripheral tissues” value [3] of the same molecule?
Answer: no specific binding

Question: What about the “affinity for LBS” value ([4]; radioligand [3H]LEV) of the same molecule?
Answer: only micromolar affinity

Question: Which “displacement of LEV binding” value [4] does the source give for C=CC(N)CCC(=O)O (centres unmarked) [vigabatrin] here?
Answer: do not displace LEV binding

Question: With NC(=O)OCC(COC(N)=O)c1ccccc1 [felbamate] as the molecule, how does the “displacement of LEV binding” value [4] read?
Answer: do not displace LEV binding

Question: With Cc1ccsc1C(=CCCN1CCC[C@@H](C(=O)O)C1)c1sccc1C [tiagabine] as the molecule, how does the “displacement of LEV binding” value [4] read?
Answer: do not displace LEV binding

Question: For NC(=O)N1c2ccccc2C=Cc2ccccc21 [carbamazepine], which “displacement of LEV binding” value [4] is on record?
Answer: do not displace LEV binding

Question: For CCCC(CCC)C(=O)O [valproate], which “displacement of LEV binding” value [4] is on record?
Answer: do not displace LEV binding

Question: Which “specific binding in peripheral tissues” value [5] does the source give for CC[C@@H](C(N)=O)N1CC(c2cccc(N=[N+]=[N-])c2)CC1=O (stereo partly drawn) [ucb 30889, (2S)-2-[4-(3-azidophenyl)-2-oxopyrrolidin-1-yl]butanamide] here?
Answer: could not be detected

Question: And the “binding to hSV2B” value [6]?
Answer: no binding above background

Question: What about the Bmax [7] of the same molecule?
Answer: 5054±704 fmol/mg protein

Question: And the “binding to untransfected COS-7 cell line” value [8]?
Answer: no binding above background

Question: What about the “binding to hSV2C” value [9] of the same molecule?
Answer: no binding above background

Question: What about the “affinity for soluble SV2A compared with native membrane” value [10] of the same molecule?
Answer: equivalent to that exhibited by ligands to the native membrane

Question: With CC[C@@H](C(N)=O)N1CCCC1=O [ucb L060] as the molecule, how does the “affinity to hSV2A compared with LEV” value [11] read?
Answer: significantly less affinity

Question: Which “displacement of LEV binding” value [4] does the source give for O=C1NC(=O)C(c2ccccc2)(c2ccccc2)N1 [phenytoin] here?
Answer: do not displace LEV binding

Question: With NS(=O)(=O)Cc1noc2ccccc12 [zonisamide] as the molecule, how does the “displacement of LEV binding” value [4] read?
Answer: do not displace LEV binding

Question: With CCC1(C)CC(=O)NC1=O (centres unmarked) [ethosuximide] as the molecule, how does the “displacement of LEV binding” value [4] read?
Answer: competed with LEV

Question: With COc1ccc(C(=O)N2CCCC2=O)cc1 [aniracetam] as the molecule, how does the “displacement of LEV binding” value [4] read?
Answer: displaced LEV binding
